Results reported in ChEMBL document CHEMBL3046633, “Synthesis and antimycobacterial activities of some new N-acylhydrazone and thiosemicarbazide derivatives of 6-methyl-4,5-dihydropyridazin-3(2H)-one” (2012).
Converted amounts (≈) assume the structure as drawn.

System: Mycobacterium tuberculosis
Experiment: Antimycobacterial activity against Mycobacterium tuberculosis by agar dilution method
Type: functional

SMILES	MIC [µM]
CCOc1ccc(/C=N/NC(=O)CN2N=C(C)CCC2=O)cc1	> 25
CC1=NN(CC(=O)N/N=C/c2ccc(C(F)(F)F)cc2)C(=O)CC1	1.56 (≈ 0.531 µg/mL)
CC1=NN(CC(=O)N/N=C(\C)c2ccc(-c3ccccc3)cc2)C(=O)CC1	25 (≈ 9.06 µg/mL)
CC1=NN(CC(=O)N/N=C(\C)c2ccccc2)C(=O)CC1	25 (≈ 7.16 µg/mL)
CC1=NN(CC(=O)N/N=C/c2ccc([N+](=O)[O-])cc2)C(=O)CC1	6.25 (≈ 1.98 µg/mL)
CC[C@@H](CO)NCCN[C@@H](CC)CO [ETHAMBUTOL]	1.56 (≈ 0.319 µg/mL)
CC1=NN(CC(=O)N/N=C/c2cccs2)C(=O)CC1	25 (≈ 6.96 µg/mL)
CC1=NN(CC(=O)N/N=C/c2ccc(F)cc2)C(=O)CC1	1.56 (≈ 0.453 µg/mL)
CC1=NN(CC(=O)N/N=C/c2ccc(Cl)cc2)C(=O)CC1	3.13 (≈ 0.96 µg/mL)
CC1=NN(CC(=O)N/N=C/c2ccc(N(C)C)cc2)C(=O)CC1	12.5 (≈ 3.94 µg/mL)
O=C(O)c1cn(C2CC2)c2cc(N3CCNCC3)c(F)cc2c1=O [CIPROFLOXACIN]	1.56 (≈ 0.517 µg/mL)
CCNC(=S)NNC(=O)CN1N=C(C)CCC1=O	> 25
CC1=NN(CC(=O)N/N=C(\C)c2ccc([N+](=O)[O-])cc2)C(=O)CC1	12.5 (≈ 4.14 µg/mL)
CC1=NN(CC(=O)NN)C(=O)CC1	25 (≈ 4.6 µg/mL)
NNC(=O)c1ccncc1 [ISONIAZID]	0.05 (≈ 0.00686 µg/mL)
CO[C@H]1/C=C/O[C@@]2(C)Oc3c(C)c(O)c4c(O)c(c(/C=N/N5CCN(C)CC5)c(O)c4c3C2=O)NC(=O)/C(C)=C\C=C\[C@H](C)[C@H](O)[C@@H](C)[C@@H](O)[C@@H](C)[C@H](OC(C)=O)[C@@H]1C [RIFAMPIN]	0.1 (≈ 0.0823 µg/mL)
CC1=NN(CC(=O)N/N=C/c2ccco2)C(=O)CC1	> 25
CC1=NN(CC(=O)N/N=C(\C)c2ccc(Cl)cc2)C(=O)CC1	12.5 (≈ 4.01 µg/mL)
COc1ccc(/C=N/NC(=O)CN2N=C(C)CCC2=O)cc1	25 (≈ 7.56 µg/mL)
CC1=NN(CC(=O)N/N=C/c2ccccc2)C(=O)CC1	12.5 (≈ 3.4 µg/mL)
CC1=NN(CC(=O)NNC(=S)Nc2ccccc2)C(=O)CC1	> 25
CC1=NN(CC(=O)N/N=C/c2ccc(C)cc2)C(=O)CC1	12.5 (≈ 3.58 µg/mL)
CC1=NN(CC(=O)N/N=C/c2ccc(Cl)cc2Cl)C(=O)CC1	0.78 (≈ 0.266 µg/mL)
CC1=NN(CC(=O)N/N=C/c2ccc(Br)cc2)C(=O)CC1	1.56 (≈ 0.548 µg/mL)
COc1ccc(/C(C)=N/NC(=O)CN2N=C(C)CCC2=O)cc1	25 (≈ 7.91 µg/mL)
CC1=NN(CC(=O)N/N=C(\C)c2ccc(Cl)cc2Cl)C(=O)CC1	12.5 (≈ 4.44 µg/mL)
CC1=NN(CC(=O)N/N=C(\C)c2ccc(C)cc2)C(=O)CC1	25 (≈ 7.51 µg/mL)
CC1=NN(CC(=O)N/N=C(\C)c2ccc(Br)cc2)C(=O)CC1	12.5 (≈ 4.57 µg/mL)
CNC(=S)NNC(=O)CN1N=C(C)CCC1=O	> 25
